# Reference: publication PMC10819809 (Microorganisms, 2024)
# Square brackets hold non-standard residues; d marks the D form. Peptide text beside a SMILES is read from it.
# Tested on: multi-drug resistant (MDR) strain (MDR-TB, clinical isolate)
# Conditions: microdilution broth, 96-well, 2 × 10^5 CFU/mL, 37 °C 14 days, resazurin 48 h; conducted twice with three technical replicates each
row,SMILES,"MIC in µg/mL, MDR-TB [µg/mL]"
1,CC[C@@H](C)[C@@H](NC(=O)[C@@H](CCCCN)NC(=O)[C@H](N)Cc1c[nH]c2ccccc12)C(=O)N[C@@H](C(=O)N[C@H](Cc1ccccc1)C(=O)N[C@H](Cc1c[nH]c2ccccc12)C(=O)N[C@H](Cc1c[nH]c2ccccc12)C(=O)N[C@H](CCCNC(=N)N)C(=O)N[C@H](CCCNC(=N)N)C(N)=O)C(C)C [peptide 14D] (H-[dW][dK][dI][dV][dF][dW][dW][dR][dR]-NH2),>50
2,CC[C@@H](C)[C@@H](NC(=O)[C@@H](CCCCN)NC(=O)[C@H](N)Cc1c[nH]c2ccccc12)C(=O)N[C@H](CO)C(=O)N[C@H](Cc1ccccc1)C(=O)N[C@H](Cc1c[nH]c2ccccc12)C(=O)N[C@H](Cc1c[nH]c2ccccc12)C(=O)N[C@H](CCCNC(=N)N)C(=O)N[C@H](CCCNC(=N)N)C(N)=O [wkisfwwrr] (H-[dW][dK][dI][dS][dF][dW][dW][dR][dR]-NH2; N-terminus assumed),20
3,CC[C@@H](C)[C@@H](NC(=O)[C@@H](CCCCN)NC(=O)[C@H](N)Cc1c[nH]c2ccccc12)C(=O)N[C@@H](C(=O)N[C@H](Cc1ccccc1)C(=O)NCC(=O)N[C@H](Cc1c[nH]c2ccccc12)C(=O)N[C@H](CCCNC(=N)N)C(=O)N[C@H](CCCNC(=N)N)C(N)=O)C(C)C [wkivfGwrr] (H-[dW][dK][dI][dV][dF]G[dW][dR][dR]-NH2; N-terminus assumed),20
4,CC[C@@H](C)[C@@H](NC(=O)[C@@H](CCCCN)NC(=O)[C@H](N)Cc1c[nH]c2ccccc12)C(=O)N[C@@H](C(=O)N[C@H](Cc1ccccc1)C(=O)N[C@H](CC(=O)O)C(=O)N[C@H](Cc1c[nH]c2ccccc12)C(=O)N[C@H](CCCNC(=N)N)C(=O)N[C@H](CCCNC(=N)N)C(N)=O)C(C)C [wkivfdwrr] (H-[dW][dK][dI][dV][dF][dD][dW][dR][dR]-NH2),20
5,CC[C@@H](C)[C@@H](NC(=O)[C@@H](CCCCN)NC(=O)[C@H](N)Cc1c[nH]c2ccccc12)C(=O)N[C@@H](C(=O)N[C@H](Cc1ccccc1)C(=O)N[C@H](CC(N)=O)C(=O)N[C@H](Cc1c[nH]c2ccccc12)C(=O)N[C@H](CCCNC(=N)N)C(=O)N[C@H](CCCNC(=N)N)C(N)=O)C(C)C [wkivfnwrr] (H-[dW][dK][dI][dV][dF][dN][dW][dR][dR]-NH2; N-terminus assumed),20
